Measured values taken from US11124510B2, “Alkyl chain modified imidazoquinoline TLR7/8 agonist compounds and uses thereof” (Dynavax Technologies Corporation, priority 2017, dated 2021).

Legend:
TLR8 = TLR8 (Homo sapiens (Human), UniProt Q9NR97); assay: TLR8 agonist bioactivity: induction of TNFα protein in monocyte cultures (ELISA, 24 h); type: cell-based; details: for EC50: TNFα induction, human monocytes, 24 hours; for fold loss of TLR8 agonist potency compared to Compound No. 63-00 (IMDQ): less potent than IMDQ; for TLR8 (% of Compound No. 63-00 EC50 Value): EC50 expressed as percentage of EC50 of Compound No. 63-00; for fold increase of TLR8 agonist potency compared to Compound No. 63-00 (IMDQ): more potent than IMDQ
Method: Monocytes were magnetically isolated from PBMCs, prepared as described above, following labeling with CD14 microbeads (Miltenyi Biotec, San Diego Calif.), according to the manufacturer's instructions. […] Culture supernatants were collected and tumor necrosis factor alpha (TNFα) protein levels were measured by ELISA (MabTech, Cincinnati Ohio), according to the manufacturer's instructions.

TLR7 = TLR7 (Homo sapiens (Human), UniProt Q9NYK1); assay: TLR7 agonist bioactivity: induction of IFNα protein in pDC-enriched PBMC cultures (ELISA, 24 h); type: cell-based; details: for EC50: IFNα induction, pDC-enriched human PBMC, 24 hours; for TLR7 (% of Compound No. 63-00 EC50 Value): EC50 expressed as percentage of EC50 of Compound No. 63-00; for fold loss of TLR7 agonist potency compared to Compound No. 63-00 (IMDQ): less potent than IMDQ
Method: Plasmacytoid dendritic cell (pDC)—enriched peripheral blood mononuclear cells (PBMCs) were prepared from the blood of a series of human donors (3-5 donors/experiment). PBMCs were isolated using Ficoll-Paque Premium® (GE Healthcare, Chicago Ill.) using methods well known to those in the art. pDCs were magnetically isolated from the total recovered PBMC population using CD304 (BDCA-4/Neuropilin-1) microbeads (Miltenyi Biotec, San Diego Calif.), according to the manufacturer's instructions. Isolated pDCs were then added back to between 1 and 2×10^8 of the corresponding donor's PBMCs for relative enrichment of this cell type. […] Culture supernatants were collected and interferon-alpha (IFNα) protein levels were measured by ELISA (MabTech, Cincinnati Ohio), according to the manufacturer's instructions.

Chain of TLR8 (Q9NR97 27-1041): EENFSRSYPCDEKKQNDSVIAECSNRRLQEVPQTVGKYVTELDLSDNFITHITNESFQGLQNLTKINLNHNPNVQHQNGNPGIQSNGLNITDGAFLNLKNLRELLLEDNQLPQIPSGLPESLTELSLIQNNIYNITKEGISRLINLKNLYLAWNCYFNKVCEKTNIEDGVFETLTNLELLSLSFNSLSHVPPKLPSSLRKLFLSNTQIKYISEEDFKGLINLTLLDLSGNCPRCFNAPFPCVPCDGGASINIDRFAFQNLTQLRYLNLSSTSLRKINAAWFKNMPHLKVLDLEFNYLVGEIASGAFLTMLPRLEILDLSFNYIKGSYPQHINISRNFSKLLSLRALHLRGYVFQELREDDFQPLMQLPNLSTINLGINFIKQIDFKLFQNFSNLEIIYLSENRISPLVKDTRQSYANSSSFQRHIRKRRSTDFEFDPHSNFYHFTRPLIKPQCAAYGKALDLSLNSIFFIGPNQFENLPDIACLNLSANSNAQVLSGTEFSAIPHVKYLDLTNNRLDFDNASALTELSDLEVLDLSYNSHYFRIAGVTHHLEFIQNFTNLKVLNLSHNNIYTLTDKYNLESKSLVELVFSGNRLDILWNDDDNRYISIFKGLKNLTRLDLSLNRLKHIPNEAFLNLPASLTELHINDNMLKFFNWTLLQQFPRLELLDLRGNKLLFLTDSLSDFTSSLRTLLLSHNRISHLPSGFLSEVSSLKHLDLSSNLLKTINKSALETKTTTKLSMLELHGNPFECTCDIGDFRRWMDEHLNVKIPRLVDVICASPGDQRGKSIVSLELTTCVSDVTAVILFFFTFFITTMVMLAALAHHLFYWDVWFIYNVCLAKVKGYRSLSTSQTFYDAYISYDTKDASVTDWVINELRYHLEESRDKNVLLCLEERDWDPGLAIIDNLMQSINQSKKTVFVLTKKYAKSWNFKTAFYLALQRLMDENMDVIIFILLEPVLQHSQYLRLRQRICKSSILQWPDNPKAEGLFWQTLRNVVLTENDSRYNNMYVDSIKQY
Chain of TLR7 (Q9NYK1 27-1049): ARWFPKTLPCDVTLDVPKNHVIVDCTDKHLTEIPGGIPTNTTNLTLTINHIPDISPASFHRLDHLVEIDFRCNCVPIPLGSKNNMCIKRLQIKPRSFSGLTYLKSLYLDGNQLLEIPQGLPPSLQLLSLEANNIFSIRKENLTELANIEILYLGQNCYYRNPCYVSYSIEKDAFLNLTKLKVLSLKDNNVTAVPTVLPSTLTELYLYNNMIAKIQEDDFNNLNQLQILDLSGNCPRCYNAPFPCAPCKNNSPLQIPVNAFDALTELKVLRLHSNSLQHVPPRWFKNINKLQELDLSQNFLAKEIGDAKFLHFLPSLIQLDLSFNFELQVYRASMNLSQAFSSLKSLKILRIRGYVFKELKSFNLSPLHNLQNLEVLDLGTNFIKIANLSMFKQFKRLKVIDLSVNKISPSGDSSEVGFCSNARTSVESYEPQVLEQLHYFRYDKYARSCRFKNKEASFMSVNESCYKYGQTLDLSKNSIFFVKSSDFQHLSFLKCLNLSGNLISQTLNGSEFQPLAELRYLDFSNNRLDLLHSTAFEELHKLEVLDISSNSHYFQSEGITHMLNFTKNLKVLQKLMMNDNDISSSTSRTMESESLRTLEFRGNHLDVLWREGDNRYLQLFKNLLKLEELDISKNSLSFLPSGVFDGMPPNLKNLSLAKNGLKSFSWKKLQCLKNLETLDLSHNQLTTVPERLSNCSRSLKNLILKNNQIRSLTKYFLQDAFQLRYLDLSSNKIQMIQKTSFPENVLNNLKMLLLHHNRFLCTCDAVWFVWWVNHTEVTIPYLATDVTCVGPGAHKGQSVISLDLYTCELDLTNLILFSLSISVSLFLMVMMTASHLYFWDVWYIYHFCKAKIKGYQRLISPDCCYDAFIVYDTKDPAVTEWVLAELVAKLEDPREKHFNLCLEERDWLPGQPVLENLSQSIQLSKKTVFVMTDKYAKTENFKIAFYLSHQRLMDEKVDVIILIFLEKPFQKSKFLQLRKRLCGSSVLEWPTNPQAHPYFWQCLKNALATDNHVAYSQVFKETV

| EC50 (TLR8) | fold loss of TLR8 agonist potency compared to Compound No. 63-00 (IMDQ) (TLR8) | EC50 (TLR7) | Structure (SMILES) | TLR8 (% of Compound No. 63-00 EC50 Value) (TLR8) | TLR7 (% of Compound No. 63-00 EC50 Value) (TLR7) | fold loss of TLR7 agonist potency compared to Compound No. 63-00 (IMDQ) (TLR7) | fold increase of TLR8 agonist potency compared to Compound No. 63-00 (IMDQ) (TLR8) |
| --- | --- | --- | --- | --- | --- | --- | --- |
| 970 nM | did not lose as much agonist activity | 2 nM | CCCCCCCCCCCCC(=O)NCc1ccc(Cn2c(CCCC)nc3c(N)nc4ccccc4c32)cc1 [Compound No. 63-09, N-(4-((4-amino-2-butyl-1H-imidazo[4,5-c]quinolin-1-yl)methyl)benzyl)tridecanamide] |  |  |  |  |
| 1040 nM |  | 32 nM | CCCCCCCCCCCCNCc1ccc(Cn2c(CCCC)nc3c(N)nc4ccccc4c32)cc1 [Compound No. 63-24, 2-butyl-1-(4-((dodecylamino)methyl)benzyl)-1H-imidazo[4,5-c]quinolin-4-amine] |  |  |  |  |
| 752 nM |  | 24 nM | CCCCCCCNCc1ccc(Cn2c(CCCC)nc3c(N)nc4ccccc4c32)cc1 [Compound No. 63-19, 2-butyl-1-(4-((heptylamino)methyl)benzyl)-1H-imidazo[4,5-c]quinolin-4-amine] |  |  |  |  |
| 3100 nM |  | 157 nM | CCCCCCCCCCCCCCCCNCc1ccc(Cn2c(CCCC)nc3c(N)nc4ccccc4c32)cc1 [Compound No. 63-32, 2-butyl-1-(4-((hexadecylamino)methyl)benzyl)-1H-imidazo[4,5-c]quinolin-4-amine, reference compound] |  |  |  |  |
| 2770 nM | over 12 fold | 19 nM | CCCCCCCCCCCCCCCCCCNCc1ccc(Cn2c(CCCC)nc3c(N)nc4ccccc4c32)cc1 [Compound No. 63-29, 2-butyl-1-(4-((octadecylamino)methyl)benzyl)-1H-imidazo[4,5-c]quinolin-4-amine] |  |  | 19 fold |  |
| 1270 nM | did not lose as much agonist activity | 3 nM | CCCCCCCCCCCC(=O)NCc1ccc(Cn2c(CCCC)nc3c(N)nc4ccccc4c32)cc1 [Compound No. 63-08, N-(4-((4-amino-2-butyl-1H-imidazo[4,5-c]quinolin-1-yl)methyl)benzyl)dodecanamide] |  |  |  |  |
| 1490 nM | 7 fold | 8 nM | CCCCc1nc2c(N)nc3ccccc3c2n1Cc1ccc(CNC(=O)CC2CC2)cc1 [Compound No. 63-34, N-(4-((4-amino-2-butyl-1H-imidazo[4,5-c]quinolin-1-yl)methyl)benzyl)-2-cyclopropylacetamide] |  |  | 8 fold |  |
| 821 nM |  | 62 nM | CCCCCCCCCCNCc1ccc(Cn2c(CCCC)nc3c(N)nc4ccccc4c32)cc1 [Compound No. 63-22, 2-butyl-1-(4-((decylamino)methyl)benzyl)-1H-imidazo[4,5-c]quinolin-4-amine] |  |  |  |  |
| 1220 nM |  | 51 nM | CCCCCCCCNCc1ccc(Cn2c(CCCC)nc3c(N)nc4ccccc4c32)cc1 [Compound No. 63-20, 2-butyl-1-(4-((octylamino)methyl)benzyl)-1H-imidazo[4,5-c]quinolin-4-amine] |  |  |  |  |
| 947 nM |  | 68 nM | CCCCCCCCCNCc1ccc(Cn2c(CCCC)nc3c(N)nc4ccccc4c32)cc1 [Compound No. 63-21, 2-butyl-1-(4-((nonylamino)methyl)benzyl)-1H-imidazo[4,5-c]quinolin-4-amine] |  |  |  |  |
| 2150 nM | 10-26 fold | 3 nM | CCCCCCCCCCCCCCCC(=O)NCc1ccc(Cn2c(CCCC)nc3c(N)nc4ccccc4c32)cc1 [Compound No. 63-31, N-(4-((4-amino-2-butyl-1H-imidazo[4,5-c]quinolin-1-yl)methyl)benzyl)palmitamide, reference compound] |  |  |  |  |

The remaining lines, values behind:

| Structure (SMILES) | EC50 (TLR8) | fold loss of TLR8 agonist potency compared to Compound No. 63-00 (IMDQ) (TLR8) | EC50 (TLR7) | TLR8 (% of Compound No. 63-00 EC50 Value) (TLR8) | TLR7 (% of Compound No. 63-00 EC50 Value) (TLR7) | fold loss of TLR7 agonist potency compared to Compound No. 63-00 (IMDQ) (TLR7) | fold increase of TLR8 agonist potency compared to Compound No. 63-00 (IMDQ) (TLR8) |
| --- | --- | --- | --- | --- | --- | --- | --- |
| CCCCc1nc2c(N)nc3ccccc3c2n1Cc1ccc(CNCCC2CCC2)cc1 [Compound No. 63-35, 2-butyl-1-(4-(((2-cyclobutylethyl)amino)methyl)benzyl)-1H-imidazo[4,5-c]quinolin-4-amine] | 70 nM |  | 12 nM | 53% | 715% |  |  |
| CCCCc1nc2c(N)nc3ccccc3c2n1Cc1ccc(CNCC(C)(C)C2CC2)cc1 [Compound No. 63-41, 2-butyl-1-(4-(((2-cyclopropyl-2-methylpropyl)amino)methyl)benzyl)-1H-imidazo[4,5-c]quinoline-4-amine] |  |  |  | 43% | 360% |  |  |
| CCCCc1nc2c(N)nc3ccccc3c2n1Cc1ccc(CNCCC2CCCC2)cc1 [Compound No. 63-36, 2-butyl-1-(4-(((2-cyclopentylethyl)amino)methyl)benzyl)-1H-imidazo[4,5-c]quinolin-4-amine] | 117 nM |  | 11 nM | 72% | 1,085% | 10.9 fold |  |
| CCCCc1nc2c(N)nc3ccccc3c2n1Cc1ccc(CNCC2(C)CCC2)cc1 [Compound No. 63-45, 2-butyl-1-(4-((((1-methylcyclobutyl)methyl)amino)methyl)benzyl)-1H-imidazo[4,5-c]quinoline-4-amine] |  |  |  | 13% | 190% | 1.9 fold | 7.7 fold |
| CCCCCCCCCC(=O)NCc1ccc(Cn2c(CCCC)nc3c(N)nc4ccccc4c32)cc1 [Compound No. 63-06, N-(4-((4-amino-2-butyl-1H-imidazo[4,5-c]quinolin-1-yl)methyl)benzyl)decanamide] | 2750 nM | 10-26 fold | 2 nM |  |  |  |  |
| CCCCCCCCCCC(=O)NCc1ccc(Cn2c(CCCC)nc3c(N)nc4ccccc4c32)cc1 [Compound No. 63-07, N-(4-((4-amino-2-butyl-1H-imidazo[4,5-c]quinolin-1-yl)methyl)benzyl)undecanamide] | 2640 nM | 10-26 fold | 1 nM |  |  |  |  |
| CCCCc1nc2c(N)nc3ccccc3c2n1Cc1ccc(CNCC2CC(C)C2)cc1 (centres unmarked) [Compound No. 63-46, 2-butyl-1-(4-((((3-methylcyclobutyl)methyl)amino)methyl)benzyl)-1H-imidazo[4,5-c]quinolin-4-amine] |  |  |  | 39% | 400% |  |  |
| CCCCc1nc2c(N)nc3ccccc3c2n1Cc1ccc(CNCC2CCC2)cc1 [Compound No. 63-44, 2-butyl-1-(4-(((cyclobutylmethyl)amino)methyl)benzyl)-1H-imidazo[4,5-c]quinolin-4-amine] |  |  |  | 17% | 120% | 1.2 fold | 5.9 fold |
| CCCCc1nc2c(N)nc3ccccc3c2n1Cc1ccc(CNCC2CC2C)cc1 (centres unmarked) [Compound No. 63-39, 2-butyl-1-(4-((((2-methylcyclopropyl)methyl)amino)methyl)benzyl)-1H-imidazo[4,5-c]quinoline-4-amine] |  |  |  | 48% | 220% |  |  |
| CCCCc1nc2c(N)nc3ccccc3c2n1Cc1ccc(CNCC2CC2)cc1 [Compound No. 63-38, 2-butyl-1-(4-(((cyclopropylmethyl)amino)methyl)benzyl)-1H-imidazo[4,5-c]quinolin-4-amine] |  |  |  | 37% | 345% |  |  |
| CCCCCCCCC(=O)NCc1ccc(Cn2c(CCCC)nc3c(N)nc4ccccc4c32)cc1 [Compound No. 63-05, N-(4-((4-amino-2-butyl-1H-imidazo[4,5-c]quinolin-1-yl)methyl)benzyl)nonanamide] | 2170 nM | 10-26 fold | 3 nM |  |  |  |  |
| CCCCc1nc2c(N)nc3ccccc3c2n1Cc1ccc(CNCC(C)(C)C2CCC2)cc1 [Compound No. 63-47, 2-butyl-1-(4-(((2-cyclobutyl-2-methylpropyl)amino)methyl)benzyl)-1H-imidazo[4,5-c]quinolin-4-amine] |  |  |  | 108% | 900% | 9.0 fold | slightly improved to slightly inferior |
| CCCCc1nc2c(N)nc3ccccc3c2n1Cc1ccc(CNCCC2(C)CC2)cc1 [Compound No. 63-42, 2-butyl-1-(4-(((2-(1-methylcyclopropyl)ethyl)amino)methyl)benzyl)-1H-imidazo[4,5-c]quinolin-4-amine] |  |  |  | 85% | 445% |  | slightly improved to slightly inferior |
| CCCCc1nc2c(N)nc3ccccc3c2n1Cc1ccc(CNCCCC2CC2)cc1 [Compound No. 63-43, 2-butyl-1-(4-(((3-cyclopropylpropyl)amino)methyl)benzyl)-1H-imidazo[4,5-c]quinolin-4-amine] |  |  |  | 77% | 440% |  |  |
| CCCCc1nc2c(N)nc3ccccc3c2n1Cc1ccc(CNCC2CC2(C)C)cc1 (centres unmarked) [Compound No. 63-40, 2-butyl-1-(4-((((2,2-dimethylcyclopropyl)methyl)amino)methyl)benzyl)-1H-imidazo[4,5-c]quinolin-4-amine] |  |  |  | 51% | 215% |  |  |
